Holding throughout (type): physicochemical
The nature of data set [1]: Circular dichroism (CD) spectroscopy of pH-triggered self-assembly transition. Conditions: for each concentration (10 μM, 500 μM). As to the method:
The target PA concentration (10 μM) was below the detectable limit of conventional techniques to determine the morphology such as cryoTEM and small-angle X-ray scattering. Consequently, circular dichroism (CD) spectroscopy was initially used to characterize the morphology of these PAs at various pH values. PA 1 was the first molecule synthesized that underwent a self-assembly transition in the desired pH range of 6.6-7.4 at 10 μM PA concentration, in 150 mM NaCl and 2.2 mM CaCl2 (FIG. 2A) (Goldberger, J. E., et al. Angew. Chem. Int. Ed. 2011 50:6292-95). […] The transition pH from random coil to β-sheet occurred at a pH of 6.6. The transition pH was defined as the value at which the ellipticity at 205 nm rises to zero, followed by the appearance of a minimum at 218-220 nm.
Measurements were done on a Jasco-815 Circular Dichroism spectrometer using 1 cm path length quartz cuvettes. […] Double deionized Milli-Q water was used for preparing all solutions. The solutions were then heated at 80° C. for 30 minutes in a water bath and gradually cooled to room temperature. […]
In general terms: Circular dichroism is widely used to follow secondary structure.

Data set [2] can be described thus: pH titration of peptide amphiphiles. Conditions: aqueous solution of 150 mM NaCl and 2.2 mM CaCl2, glutamic acid residues, 10 μM PA. The procedure: The titration measurements were conducted on 10 μM peptide amphiphile solutions prepared in 150 mM NaCl and 2.2 mM CaCl2 using milli-Q water. The solution was heated at 80° C. for 30 minutes followed by slow cooling at room temperature. The pH of the solution was then adjusted to 4 using HCl. Finally, an Accumet XL15 pH meter (Fisher Scientific) coupled with an Orion Ross Ultra semi-micro electrode (8103BNUWP, Thermo Scientific) was used to track changes in pH of the solution as NaOH solution was added in small increments. pKa values were obtained from the second inflection points of the first derivative plots of the titration data. The first transition corresponds to neutralization of excess HCl. The calculated pKas reflect the average pKa for all four glutamic acids.

A short description of data set [3]: Transmission electron microscopy (TEM) of self-assembled morphology. Conditions: 0.5 mM PA. The procedure: At a pH of 7.75, HCl was added until the pH was 6.1, and the resulting β-sheet CD spectrum was collected within three minutes. An appropriate amount of NaOH was then added to reverse the pH back to 7.70, and random coil behavior was observed again. […] Conventional transmission electron microscopy (TEM) imaging was used to determine the morphology of 10 μM of PA 1, at pH values of 6 and 8 (FIG. 6A, 6B). The TEM grids were prepared within three minutes of pH adjustment. […] This nanofiber diameter corresponds roughly to twice the molecular length based on MM+ molecular simulations, corresponding approximately to the expected diameter of cylindrical fibers consisting of hydrophobically collapsed β-sheets.
TEM images were obtained using solutions of either 10 μM or 0.5 mM peptide amphiphile concentration, as well as 150 mM NaCl and 2.2 mM CaCl2 in Milli-Q water. The solutions were first heated at 80° C. for 30 minutes in a water bath and then gradually cooled to room temperature. This was followed by pH adjustment using either HCl or NaOH. 5 μL of this solution was pipetted onto a Carbon Formvar grid (Electron Microscopy Sciences) and allowed to sit for 2 minutes before being wicked dry using filter paper. For the 10 μM experiments that were performed to determine the time dependence of nanofiber formation, solutions were dropcast onto the grid within three minutes of pH adjustment. […]

Peptide text beside a SMILES is read from it. * marks the point of attachment. Palmitoyl = CCCCCCCCCCCCCCCC(=O)*; DO3A:Gd = Gd-chelated DO3A

Take “Palmitoyl-VAAAEEEEK(DO3A:Gd)-NH2 (also: Gd complex of DO3A) [PA 6]”: the “nanofiber to micelle transition pH, lower than PA 5 by” value in data set [1] came out at 0.4 units. `CCCCCCCCCCCCCCCC(=O)N[C@H](C(=O)N[C@@H](C)C(=O)N[C@@H](C)C(=O)N[C@@H](C)C(=O)N[C@@H](CCC(=O)O)C(=O)N[C@@H](CCC(=O)O)C(=O)N[C@@H](CCC(=O)O)C(=O)N[C@@H](CCC(=O)O)C(N)=O)C(C)C` [PA 3] (Palmitoyl-VAAAEEEE-NH2): the pKa (usually the pH at which an ionisable group is half protonated) in data set [2] is 4.86 ± 0.11. The same measure, in the same setting: the figure for `CCCCCCCCCCCCCCCC(=O)N[C@H](C(=O)N[C@@H](C)C(=O)N[C@@H](C)C(=O)N[C@@H](C)C(=O)N[C@@H](CCC(=O)O)C(=O)N[C@@H](CCC(=O)O)C(=O)N[C@@H](CCC(=O)O)C(=O)N[C@@H](CCC(=O)O)C(N)=O)[C@@H](C)CC` [PA 1] (Palmitoyl-IAAAEEEE-NH2) is 4.66 ± 0.1; for `CCCCCCCCCCCCCCCC(=O)N[C@@H](Cc1ccc(O)cc1)C(=O)N[C@@H](C)C(=O)N[C@@H](C)C(=O)N[C@@H](C)C(=O)N[C@@H](CCC(=O)O)C(=O)N[C@@H](CCC(=O)O)C(=O)N[C@@H](CCC(=O)O)C(=O)N[C@@H](CCC(=O)O)C(N)=O` [PA 4] (Palmitoyl-YAAAEEEE-NH2) it is 4.7 ± 0.1. For the molecule “Palmitoyl-IAAAEEEEK(DO3A:Gd)-NH2 (also: Gd complex of DO3A) [PA 5]”, the diameter of nanofibers in data set [3] (pH 4) stood at 11.9±1.6 nm. For the same molecule, in data set [3] (pH 10), the “diameter of spherical micelles” value came out at 10.0±1.2 nm. With `CCCCCCCCCCCCCCCC(=O)N[C@@H](Cc1ccccc1)C(=O)N[C@@H](C)C(=O)N[C@@H](C)C(=O)N[C@@H](C)C(=O)N[C@@H](CCC(=O)O)C(=O)N[C@@H](CCC(=O)O)C(=O)N[C@@H](CCC(=O)O)C(=O)N[C@@H](CCC(=O)O)C(N)=O` [PA 2] (Palmitoyl-FAAAEEEE-NH2), the pKa in data set [2] is 4.94 ± 0.09.

Source of the values: patent publication US20140363378A1, “SELF-ASSEMBLING MOLECULES THAT ACCUMULATE IN ACIDIC TUMOR MICROENVIRONMENTS” (The Ohio State University, priority 2012, published 2014).
